From patent US20260262643A1, “HERBICIDAL BENZOXAZINES” (FMC CORPORATION, priority 2022, published 2026)

What was measured:
barnyardgrass [1] = experiment: Test C preemergence; type: in vivo, Echinochloa crusgalli
Method in brief: (§1)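 Soil-applied (pre) and foliar (post, 1–2 leaf, 2–10 cm) sprays; surfactant-containing non-phytotoxic solvent vehicle; loam/sand substrate. Readout: visual % control at 10 d, greenhouse, versus untreated.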

blackgrass [2] = experiment: Test C preemergence; type: in vivo, Alopecurus myosuroides
Method in brief: as §1

corn [3] = experiment: Test C preemergence; type: in vivo, Zea mays
Method in brief: as §1

green foxtail [4] = experiment: Test C preemergence; type: in vivo, Setaria viridis
Method in brief: as §1

kochia [5] = experiment: Test C preemergence; type: in vivo, Bassia scoparia
Method in brief: as §1

oat, wild [6] = experiment: Test C preemergence; type: in vivo, Avena fatua
Method in brief: as §1

pigweed, palmer [7] = experiment: Test C preemergence; type: in vivo, Amaranthus palmeri
Method in brief: as §1

ragweed [8] = experiment: Test C preemergence; type: in vivo, Ambrosia artemisiifolia
Method in brief: as §1

ryegrass, Italian [9] = experiment: Test C preemergence; type: in vivo, Lolium multiflorum
Method in brief: as §1

soybean [10] = experiment: Test C preemergence; type: in vivo, Glycine max
Method in brief: as §1

wheat [11] = experiment: Test C preemergence; type: in vivo, Triticum aestivum
Method in brief: as §1

barnyardgrass [12] = experiment: Test C postemergence; type: in vivo, Echinochloa crusgalli; details: 10 days, 0 to 100 scale (0 no effect, 100 complete control)
Method in brief: as §1

blackgrass [13] = experiment: Test C postemergence; type: in vivo, Alopecurus myosuroides; details: 10 days, 0 to 100 scale (0 no effect, 100 complete control)
Method in brief: as §1

corn [14] = experiment: Test C postemergence; type: in vivo, Zea mays; details: 10 days, 0 to 100 scale (0 no effect, 100 complete control)
Method in brief: as §1

green foxtail [15] = experiment: Test C postemergence; type: in vivo, Setaria viridis; details: 10 days, 0 to 100 scale (0 no effect, 100 complete control)
Method in brief: as §1

kochia [16] = experiment: Test C postemergence; type: in vivo, Bassia scoparia; details: 10 days, 0 to 100 scale (0 no effect, 100 complete control)
Method in brief: as §1

oat, wild [17] = experiment: Test C postemergence; type: in vivo, Avena fatua; details: 10 days, 0 to 100 scale (0 no effect, 100 complete control)
Method in brief: as §1

pigweed, palmer [18] = experiment: Test C postemergence; type: in vivo, Amaranthus palmeri; details: 10 days, 0 to 100 scale (0 no effect, 100 complete control)
Method in brief: as §1

ragweed [19] = experiment: Test C postemergence; type: in vivo, Ambrosia artemisiifolia; details: 10 days, 0 to 100 scale (0 no effect, 100 complete control)
Method in brief: as §1

ryegrass, Italian [20] = experiment: Test C postemergence; type: in vivo, Lolium multiflorum; details: 10 days, 0 to 100 scale (0 no effect, 100 complete control)
Method in brief: as §1

soybean [21] = experiment: Test C postemergence; type: in vivo, Glycine max; details: 10 days, 0 to 100 scale (0 no effect, 100 complete control)
Method in brief: as §1

wheat [22] = experiment: Test C postemergence; type: in vivo, Triticum aestivum; details: 10 days, 0 to 100 scale (0 no effect, 100 complete control)
Method in brief: as §1

galium = experiment: Test C postemergence; type: in vivo, Galium aparine; details: 10 days, 0 to 100 scale (0 no effect, 100 complete control)
Method in brief: as §1

horseweed = experiment: Test C postemergence; type: in vivo, Erigeron canadensis; details: 10 days, 0 to 100 scale (0 no effect, 100 complete control)
Method in brief: as §1

barnyardgrass [23] = experiment: Test D flooded paddy test; type: in vivo, Echinochloa crus-galli; details: 250 g ai/ha, applied to paddy water, visual rating after 13 to 14 days, scale 0 to 100 (0 no effect, 100 complete control)
Method in brief: (§2)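 At the 2-leaf stage, floodwater 3 cm deep received the test compound; that depth persisted throughout. Plants scored visually 13 to 14 days on, 0 (no effect) to 100 (complete control), dash indicating no result.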

ducksalad = experiment: Test D flooded paddy test; type: in vivo, Heteranthera limosa; details: 250 g ai/ha, applied to paddy water, visual rating after 13 to 14 days, scale 0 to 100 (0 no effect, 100 complete control)
Method in brief: as §2

rice = experiment: Test D flooded paddy test; type: in vivo, Oryza sativa; details: 250 g ai/ha, applied to paddy water, visual rating after 13 to 14 days, scale 0 to 100 (0 no effect, 100 complete control)
Method in brief: as §2

sedge, umbrella = experiment: Test D flooded paddy test; type: in vivo, Cyperus difformis; details: 250 g ai/ha, applied to paddy water, visual rating after 13 to 14 days, scale 0 to 100 (0 no effect, 100 complete control)
Method in brief: as §2

[24] = 500 g ai/ha, preemergence, 0 to 100 scale (0 no effect, 100 complete control)
[25] = Preemergence, 125 g ai/ha, 0 to 100 scale, 0 no effect, 100 complete control

Cc1ccc(-n2cnc(C(C)(C)C)n2)cc1C(=O)N1CC(C(F)(F)F)Oc2c(Cl)cccc21 (stereo not shown) [Compound 350]
70: Plant response rating, Kochia (kochia [16]; Postemergence, 125 g ai/ha)
50: Plant response rating, Barnyardgrass (barnyardgrass [1]; [25]) | Blackgrass plant response rating (blackgrass [2]; [24]) | Plant response rating, Kochia (kochia [5]; [25]) | Oat, Wild plant response rating (oat, wild [6]; [24]) | Plant response rating, Ragweed (ragweed [19]; 500 g ai/ha, postemergence)
10: Plant response rating, Barnyardgrass (barnyardgrass [12]; Postemergence, 125 g ai/ha) | Plant response rating, Blackgrass (blackgrass [13]; Postemergence, 125 g ai/ha) | Plant response rating, Corn (corn [14]; Postemergence, 125 g ai/ha) | Plant response rating, Oat, Wild (oat, wild [17]; 500 g ai/ha, postemergence) | Plant response rating, Ryegrass, Italian (ryegrass, Italian [20]; Postemergence, 125 g ai/ha) | Plant response rating, Wheat (wheat [22]; 500 g ai/ha, postemergence) | Plant response rating, Wheat (wheat [22]; Postemergence, 125 g ai/ha)
40: Plant response rating, Horseweed (horseweed; 500 g ai/ha, postemergence) | Plant response rating, Horseweed (horseweed; Postemergence, 125 g ai/ha)
90: Soybean plant response rating (soybean [10]; [24]) | Plant response rating, Soybean (soybean [10]; [25]) | Plant response rating, Kochia (kochia [16]; 500 g ai/ha, postemergence)
0: Corn plant response rating (corn [3]; [24]) | Plant response rating, Corn (corn [3]; [25]) | Plant response rating, Oat, Wild (oat, wild [17]; Postemergence, 125 g ai/ha) | Plant response rating, Barnyardgrass (Flood) (barnyardgrass [23]) | Plant response rating, Ducksalad (Flood) (ducksalad) | Plant response rating, Rice (Flood) (rice) | Plant response rating, Sedge, Umbrella (Flood) (sedge, umbrella)
20: Plant response rating, Blackgrass (blackgrass [2]; [25]) | Plant response rating, Ragweed (ragweed [8]; [25]) | Plant response rating, Blackgrass (blackgrass [13]; 500 g ai/ha, postemergence) | Plant response rating, Corn (corn [14]; 500 g ai/ha, postemergence)
80: Kochia plant response rating (kochia [5]; [24]) | Plant response rating, Foxtail, Green (green foxtail [15]; 500 g ai/ha, postemergence) | Plant response rating, Galium (galium; Postemergence, 125 g ai/ha)
60: Ragweed plant response rating (ragweed [8]; [24])
100: Barnyardgrass plant response rating (barnyardgrass [1]; [24]) | Foxtail, Green plant response rating (green foxtail [4]; [24]) | Plant response rating, Foxtail, Green (green foxtail [4]; [25]) | Pigweed, Palmer plant response rating (pigweed, palmer [7]; [24]) | Plant response rating, Pigweed, Palmer (pigweed, palmer [7]; [25]) | Ryegrass, Italian plant response rating (ryegrass, Italian [9]; [24]) | Plant response rating, Ryegrass, Italian (ryegrass, Italian [9]; [25]) | Plant response rating, Pigweed, Palmer (pigweed, palmer [18]; 500 g ai/ha, postemergence) | Plant response rating, Pigweed, Palmer (pigweed, palmer [18]; Postemergence, 125 g ai/ha) | Plant response rating, Soybean (soybean [21]; 500 g ai/ha, postemergence) | Plant response rating, Soybean (soybean [21]; Postemergence, 125 g ai/ha) | Plant response rating, Galium (galium; 500 g ai/ha, postemergence)
30: Plant response rating, Oat, Wild (oat, wild [6]; [25]) | Wheat plant response rating (wheat [11]; [24]) | Plant response rating, Wheat (wheat [11]; [25]) | Plant response rating, Barnyardgrass (barnyardgrass [12]; 500 g ai/ha, postemergence) | Plant response rating, Foxtail, Green (green foxtail [15]; Postemergence, 125 g ai/ha) | Plant response rating, Ragweed (ragweed [19]; Postemergence, 125 g ai/ha) | Plant response rating, Ryegrass, Italian (ryegrass, Italian [20]; 500 g ai/ha, postemergence)
